These results are taken from patent US20150119395A1, “NOVEL TRIAZOLE COMPOUNDS THAT MODULATE HSP90 ACTIVITY” (SYNTA PHARMACEUTICALS CORP., priority 2012, published 2015).

Where only a bound is given, the exact number is not on record here.

In the first experiment the test system is Her2. Kind of experiment: Her2 degradation in BT-474 cells, in-cell western (ICW), Method 2. The experiment is classed as cell-based, human. The conditions noted are these: BT-474 cells, 24 hours, Her2 signal normalized to DRAQ5; read-out: Her2 IC50 range of compounds of the invention for inhibition of Hsp90. How it is done: Human BT474 (HTB-20), SK-BR-3 (HTB-30) and MCF-7 breast carcinoma cells (HTB-22) from American Type Culture Collection, VA, USA were grown in Dulbecco's modified Eagle's medium with 4 mM L-glutamine and antibiotics (100 IU/ml penicillin and 100 μg/ml streptomycine; GibcoBRL). To obtain exponential cell growth, cells were trypsinized, counted and seeded at a cell density of 0.5×10^6 cells/ml regularly, every 3 days. All experiments were performed on day 1 after cell passage.
BT-474 cells were plated in the interior 60 wells of a 96 well black clear bottom plate (20,000 cells/well) in DMEM medium, with DMEM media in the surrounding 36 wells, and incubated at 37° C. with 5% CO2 overnight. On the second day, concentration response curve source plates were produced (10 point, 3-fold dilution of compounds in DMSO) followed by a 1:30 dilution in an intermediate dilution plate containing DMEM. Compound was transferred from the intermediate plate to the cell plate at a dilution of 1:10. The cells were incubated at 37° C. with 5% CO2 for 24 hours.
Cells were fixed in 4% phosphate buffered paraformaldehyde for 30 minutes at room temperature and then permeabilized by washing five times with 0.1% Triton X-100 in PBS for 5 minutes at room temperature on a shaker. Cells were blocked with Odyssey Blocking Buffer (LI-COR, #927-40000) on a shaker at room temperature for 1.5 hours followed by incubation with Her2 antibody (CST, #2165) diluted 1:400 in blocking buffer overnight on a shaker at 4° C. Cells were washed five times with 0.1% Tween-20 in PBS for 5 minutes at room temperature on a shaker and incubated with fluorescently labeled secondary antibody (LI-COR, #926-32211) diluted 1:1000 in blocking buffer, and DRAQ5 nuclear stain (Biostatus Limited, #DRAQ5) diluted 1:10,000, at room temperature on a shaker for 1 hour. Cells were washed 5 times with 0.1% Tween-20 in PBS for 5 minutes at room temperature on a shaker and imaged on a LI-COR Odyssey imaging station. The raw data was normalized to DRAQ5 and the Her2 EC50 were calculated using XLfit.
Regarding `CC(C)c1cc(-c2nnc(-c3cc(C(C)C)c(O)cc3O)n2-c2ccc(N3CCN(C)CC3)cc2)c(O)cc1O` [Compound 1, 6,6′-(4-(4-(4-methylpiperazin-1-yl)phenyl)-4H-1,2,4-triazole-3,5-diyl)bis(4-isopropylbenzene-1,3-diol)], the 50% inhibitory concentration (IC50) (usually the point on the concentration scale where inhibition reaches its midpoint) stood at 3.5 µM. Same read-out and setting: under `CC(C)c1cc(-c2nnc(-c3ccncc3)n2-c2ccc(N3CCN(C)CC3)cc2)c(O)cc1O` [Compound 2, 4-isopropyl-6-(4-(4-(4-methylpiperazin-1-yl)phenyl)-5-(pyridin-4-yl)-4H-1,2,4-triazol-3-yl)benzene-1,3-diol] stands 2.28 µM. Same read-out and setting: under `CC(C)c1cc(-c2nnc(-c3ccccc3O)n2-c2ccc(N3CCN(C)CC3)cc2)c(O)cc1O` [Compound 3, 4-(5-(2-hydroxyphenyl)-4-(4-(4-methylpiperazin-1-yl)phenyl)-4H-1,2,4-triazol-3-yl)-6-isopropylbenzene-1,3-diol] stands 5.16 µM; under `CC(C)c1cc(-c2nnc(-c3cccc(O)c3)n2-c2ccc(N3CCN(C)CC3)cc2)c(O)cc1O` [Compound 4, 4-(5-(3-hydroxyphenyl)-4-(4-(4-methylpiperazin-1-yl)phenyl)-4H-1,2,4-triazol-3-yl)-6-isopropylbenzene-1,3-diol], 0.543 µM. For the molecule `CC(C)c1cc(-c2nnc(-c3ccccn3)n2-c2ccc(N3CCN(C)CC3)cc2)c(O)cc1O` [Compound 5, 4-isopropyl-6-(4-(4-(4-methylpiperazin-1-yl)phenyl)-5-(pyridin-2-yl)-4H-1,2,4-triazol-3-yl)benzene-1,3-diol], the half-maximal inhibitory concentration (IC50) is 0.543 µM. Same read-out and setting: under `CC(C)c1cc(-c2nnc(-c3cnccn3)n2-c2ccc(N3CCN(C)CC3)cc2)c(O)cc1O` [Compound 6, 4-isopropyl-6-(4-(4-(4-methylpiperazin-1-yl)phenyl)-5-(pyrazin-2-yl)-4H-1,2,4-triazol-3-yl)benzene-1,3-diol] stands 3.41 µM; under `CC(C)c1cc(-c2nnc(-c3cccc(O)c3)n2-c2ccc(CN3CCN(C)CC3)cc2)c(O)cc1O` [Compound 7, 4-(5-(3-hydroxyphenyl)-4-(4-((4-methylpiperazin-1-yl)methyl)phenyl)-4H-1,2,4-triazol-3-yl)-6-isopropylbenzene-1,3-diol], 0.123 µM. Take `CC(C)c1cc(-c2nnc(-c3cccc(O)c3)n2-c2ccc(N3CCOCC3)cc2)c(O)cc1O` [Compound 8, 4-(5-(3-hydroxyphenyl)-4-(4-morpholinophenyl)-4H-1,2,4-triazol-3-yl)-6-isopropylbenzene-1,3-diol]: the half-inhibitory concentration (IC50) turned out to be 0.143 µM.

Staying with this experiment, now noted: Table 3; read-out: EC50 range for Her2 degradation.
Consider `CC(C)c1cc(-c2nnc(-c3cccc(O)c3)n2-c2ccccc2)c(O)cc1O` [Compound 9, 4-(5-(3-hydroxyphenyl)-4-phenyl-4H-1,2,4-triazol-3-yl)-6-isopropylbenzene-1,3-diol], for which the EC50 (in general, the midpoint of the concentration-response curve) was under 0.2 µM. On to `CC(C)c1cc(-c2nnc(-c3cccc(O)c3)n2-c2ccc(CN3CCOCC3)cc2)c(O)cc1O` [Compound 10, 4-(5-(3-hydroxyphenyl)-4-(4-(morpholinomethyl)phenyl)-4H-1,2,4-triazol-3-yl)-6-isopropylbenzene-1,3-diol], for which the half-maximal effective concentration (EC50) was 0.06 µM.

In the case of `CC(C)c1cc(-c2nnc(-c3cccc(O)c3)n2-c2cccnc2)c(O)cc1O` [Compound 11, 4-(5-(3-hydroxyphenyl)-4-(pyridin-3-yl)-4H-1,2,4-triazol-3-yl)-6-isopropylbenzene-1,3-diol], the EC50 is 0.3 µM.

Turning to `CC(C)c1cc(-c2nnc(-c3cccnc3)n2-c2cccnc2)c(O)cc1O` [Compound 12, 4-(4,5-di(pyridin-3-yl)-4H-1,2,4-triazol-3-yl)-6-isopropylbenzene-1,3-diol], the 50% effective concentration (EC50) stood at 1 µM. On the same count and under the same terms, under `CC(C)c1cc(-c2nnc(-c3cccnc3)n2-c2ccc(CN3CCOCC3)cc2)c(O)cc1O` [Compound 13, 4-isopropyl-6-(4-(4-(morpholinomethyl)phenyl)-5-(pyridin-3-yl)-4H-1,2,4-triazol-3-yl)benzene-1,3-diol] stands 0.1 µM.
